The results in this text go back to PMC4014702, “Synthesis, In Vitro and In Vivo Evaluation of the N-ethoxycarbonylmorpholine Ester of Diclofenac as a Prodrug” (Pharmaceuticals, 2014).

In one data set the test system is stomach (mucosal damage). In words: In vivo ulcerogenicity study in rats. Set-up: species or system male Sprauge-Dawley rats. As to conditions: for number of lesions / ulcer score: single equimolar dose (diclofenac sodium 100 mg/kg, prodrug 140 mg/kg); for number of lesions: average, for the prodrug punctiform lesions; for ulcer score: sacrificed after 17 h. Here is the method:
The ulceroginicity of diclofenac sodium and its prepared prodrug 2 were evaluated. Three groups (six animals each) of male Sprauge-Dawley rats (150–200 gm) were fasted for 8 h prior to administration of single equimolar doses of diclofenac sodium (100 mg/kg), its prodrug (140 mg/kg), or vehicle. Free access to food and water were provided throughout the experiment. […] The stomach of the rats was dissected out of the body, and stomach content was emptied and washed with saline. The stomach was then opened and wiped with a clean swap dipped in saline. The degree of mucosal damage was assessed using a 4× binocular magnifier. The severity of the damage was assessed according to a scoring system where the presence of <5 punctiforms with no ulcers was given the score of zero. A punctiform was defined as a lesion of less than 1 mm. If >5 punctiforms were present with no ulcer, a score of 1 was given. If 1–5 small ulcers (1–2 mm in diameter) were observed, a score of 2 was given. If >5 small ulcers or one large ulcer (>2 mm in diameter) was present, a score of […] was given. If >1 large ulcer was observed, a score of 4 was given. The scores were averaged and the mean score was tabulated as ulcerogenicity index for the drugs under investigation.

A short description of data set [1]: Hydrolysis kinetics in human plasma. In kind it is in vitro ADME. Conditions: 37 ± 0.3 °C. Here is the method: (§1) The HPLC analysis was performed using LaChrom Merck Hitachi system that consists of a D-7000 interface, L-7200 diode array detector, pump L-7150 and D-7000HSM software (Schaumburg, IL, USA). The UV detector was set at 280 nm wave length. The HPLC column was an Agela unisol-C18, 5 micron 4.6 × 150. Mobile phase was 80% methanol, 20% water. To each litre, 2 mL acetic acid were added. The mobile phase was pumped at flow rate 1.5 mL/min. The retention times were: 5.17 min 6.19 min and 7.15 min for 2-hydroxyethyldiclofenac, diclofenac sodium and the morpholine prodrug, respectively (Figure 2). The analytical method was fully validated.
The prodrug under investigations was incubated in human plasma using a shaking water bath, which was set at 37 ± 0.3 °C. An amount of 25 µL of 1.0 mg/mL stock solution of the prodrug under investigation was added to 5 mL of the incubated plasma. At appropriate time points, samples of 100 μL were withdrawn and deproteinized by adding equal volumes of acetonitrile. The formed mixture was mixed on a vortex then centrifuge at 2,500 rpm for 10 min. The clear supernatant was analyzed using the HPLC method.

Data set [2] in a line: Hydrolysis kinetics in aqueous buffer solution. In kind it is physicochemical. Conditions: about 37 °C. Here is the method:
as §1
The prodrug under investigation was incubated in 0.1 N HCl (pH 1.0) and phosphate buffer (pH 7.4). The formed solutions were kept in a shaking water bath at about 37 °C for eight h. At appropriate intervals, samples (100 µL) were analyzed using the HPLC method described earlier.

Molecules are shown by their SMILES. Structures can show the parent of a compound that is named as a salt.

For `O=C(Cc1ccccc1Nc1c(Cl)cccc1Cl)OCCOC(=O)N1CCOCC1` [Compound 2], the number of lesions entry in the data set on stomach (mucosal damage) (17 h) was “less than five”. In addition, in the data set on stomach (mucosal damage), the ulcer score result is given as “zero”. Moreover, in data set [1], the half-life at 5 µg/mL turned out to be 0.35 h. Also, the half-life in data set [2] (pH 1 (0.1 N HCl)) is 8 h; in data set [2] (pH 7.4 (phosphate buffer)), 47 h.
On to `O=C(O)Cc1ccccc1Nc1c(Cl)cccc1Cl` [Compound 1, 2-[(2,6-dichloro-phenyl])amino]benzeneacetic acid sodium salt], for which the “lesions larger than 2 mm” value with stomach (mucosal damage) (single dose diclofenac sodium 100 mg/kg, 17 h) is “six”. Moreover, the number of lesions in the data set with stomach (mucosal damage) (17 h) is reported as 82. In addition, the ulcer score result in the data set with stomach (mucosal damage) is reported as “four”.
